The results in this text go back to US10865208B2, “ATG7 inhibitors and the uses thereof” (Millennium Pharmaceuticals, Inc., priority 2016, dated 2020).

This assay has as its target recombinant human His-ATG7 enzyme (Homo sapiens (Human), UniProt O95352). In words: ATG7 Enzyme Assay (HTRF/FRET, ATG3-GST and Flag-Gabarap). In kind it is biochemical. Conditions: for inhibition at 0.123 µM: Concentration 0.123 μM. The gist of the method: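 HTRF read-out after 2 h at 24° C, using Eu-cryptate anti-Flag and XL-APC anti-GST antibodies in an EDTA stop buffer. The preceding 105 min, 24° C reaction (pH 7.5) held 10 μM ATP, 5 nM each ATG3-GST and Flag-Gabarap, and 0.15 nM human His-ATG7. Values are IC50 or percent inhibition at one concentration.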

[1] abbreviates: Concentration 0.111 μM, read-out: Percent Inhibition.

pIC50: −log10 of the molar value.

Sequence of recombinant human His-ATG7 enzyme (O95352 whole entry): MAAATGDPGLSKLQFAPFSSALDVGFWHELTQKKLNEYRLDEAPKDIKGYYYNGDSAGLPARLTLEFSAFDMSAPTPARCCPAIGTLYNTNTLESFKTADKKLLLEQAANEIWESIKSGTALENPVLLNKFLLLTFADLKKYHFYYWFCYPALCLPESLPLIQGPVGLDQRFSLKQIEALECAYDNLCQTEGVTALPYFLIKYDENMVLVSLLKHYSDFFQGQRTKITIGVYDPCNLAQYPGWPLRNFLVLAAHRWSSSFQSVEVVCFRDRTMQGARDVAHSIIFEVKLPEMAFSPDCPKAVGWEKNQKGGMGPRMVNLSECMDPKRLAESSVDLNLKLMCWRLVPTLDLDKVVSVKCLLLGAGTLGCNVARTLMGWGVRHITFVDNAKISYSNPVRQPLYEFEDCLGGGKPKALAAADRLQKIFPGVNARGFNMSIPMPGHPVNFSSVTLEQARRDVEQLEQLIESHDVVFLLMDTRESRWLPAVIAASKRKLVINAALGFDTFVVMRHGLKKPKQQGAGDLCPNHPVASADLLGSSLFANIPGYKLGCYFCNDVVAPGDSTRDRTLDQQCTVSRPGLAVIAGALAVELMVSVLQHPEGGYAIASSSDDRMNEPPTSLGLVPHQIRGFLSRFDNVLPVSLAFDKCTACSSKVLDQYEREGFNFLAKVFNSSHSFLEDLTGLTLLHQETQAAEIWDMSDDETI

Consider `C[S+]([O-])c1nn([C@@H]2O[C@H](COS(N)(=O)=O)[C@@H](O)[C@H]2O)c2ncnc(N)c12` (stereo partly drawn) [Compound I-87, {(2R,3S,4R,5R)-5-[4-amino-3-(methylsulfinyl)-1H-pyrazolo[3,4-d]pyrimidin-1-yl]-3,4-dihydroxytetrahydrofuran-2-yl}methyl Sulfamate], for which the pIC50 is 7.00 to 7.30. For the same compound, the inhibition at 0.123 µM (read-out: Percent Inhibition) was found to be 58%.

Turning to `CCOc1nn([C@@H]2O[C@H](COS(N)(=O)=O)[C@@H](O)[C@H]2O)c2ncnc(N)c12` [Compound I-5, [(2R,3S,4R,5R)-5-(4-amino-3-ethoxy-1H-pyrazolo[3,4-d]pyrimidin-1-yl)-3,4-dihydroxytetrahydrofuran-2-yl]methyl Sulfamate], the pIC50 is 6.30 to 7.00. Moreover, the inhibition at 0.069 µM (Concentration 0.069 μM, read-out: Percent Inhibition) is 23%.

For the compound `COc1ccc(F)c(Sc2nn([C@H]3C[C@H](O)[C@@H](COS(N)(=O)=O)O3)c3ncnc(N)c23)c1` [Compound I-173, [(2R,3S,5R)-5-{4-amino-3-[(2-fluoro-5-methoxyphenyl)sulfanyl]-1H-pyrazolo[3,4-d]pyrimidin-1-yl}-3-hydroxytetrahydrofuran-2-yl]methyl sulfamate], the pIC50 was 7.30 to 7.70. In addition, the inhibition at 0.111 µM under setting [1] amounted to 81%.

`Cc1ccc(Sc2nn([C@H]3C[C@H](O)C(COS(N)(=O)=O)O3)c3ncnc(N)c23)c(F)c1` (stereo in doubt) [Compound I-211, [(2S,3S,5R)-5-{4-amino-3-[(2-fluoro-4-methylphenyl)sulfanyl]-1H-pyrazolo[3,4-d]pyrimidin-1-yl}-3-hydroxytetrahydrofuran-2-yl]methyl Sulfamate]: the pIC50 is 7.00 to 7.30. In addition, the “Percent Inhibition” value (Concentration 0.111 μM) is 64%.

For `Nc1ncnc2c1c(Sc1ccccc1F)nn2[C@@H]1O[C@H](COS(N)(=O)=O)[C@@H](O)[C@@H]1F` [Compound I-109, [(2R,3R,4S,5R)-5-{4-amino-3-[(2-fluorophenyl)sulfanyl]-1H-pyrazolo[3,4-d]pyrimidin-1-yl}-4-fluoro-3-hydroxytetrahydrofuran-2-yl]methyl sulfamate], the pIC50 was 7.30 to 7.70. In addition, the inhibition at 0.111 µM under setting [1] turned out to be 82%.

`CCC(CC)Sc1nn([C@@H]2O[C@H](COS(N)(=O)=O)[C@@H](O)[C@@H]2F)c2ncnc(N)c12` [Compound I-120, {(2R,3R,4S,5R)-5-[4-amino-3-(pentan-3-ylsulfanyl)-1H-pyrazolo[3,4-d]pyrimidin-1-yl]-4-fluoro-3-hydroxytetrahydrofuran-2-yl}methyl sulfamate]: the negative logarithm of the IC50 (pIC50) was 6.30 to 7.00. Also, under setting [1], the inhibition at 0.111 µM worked out at 46%.

As for `Nc1ncnc2c1c(SCC1CC(F)(F)C1)nn2[C@@H]1O[C@H](COS(N)(=O)=O)[C@@H](O)[C@@H]1F` [Compound I-97, [(2R,3R,4S,5R)-5-(4-amino-3-{[(3,3-difluorocyclobutyl)methyl]sulfanyl}-1H-pyrazolo[3,4-d]pyrimidin-1-yl)-4-fluoro-3-hydroxytetrahydrofuran-2-yl]methyl sulfamate], the pIC50 was 7.30 to 7.70. Under setting [1], the inhibition at 0.111 µM worked out at 66%.

For `CSc1nn([C@H]2C[C@H](O)[C@H](COS(N)(=O)=O)O2)c2ncnc(N)c12` [Compound I-219, {(2S,3S,5R)-5-[4-amino-3-(methylsulfanyl)-1H-pyrazolo[3,4-d]pyrimidin-1-yl]-3-hydroxytetrahydrofuran-2-yl}methyl Sulfamate], the pIC50 was 6.30 to 7.00. Also, under setting [1], the inhibition at 0.111 µM is 48%.

Take `Nc1ncnc2c1c(Sc1ccccc1F)nn2[C@H]1C[C@H](O)[C@@H](COS(N)(=O)=O)O1` [Compound I-182, [(2R,3S,5R)-5-{4-amino-3-[(2-fluorophenyl)sulfanyl]-1H-pyrazolo[3,4-d]pyrimidin-1-yl}-3-hydroxytetrahydrofuran-2-yl]methyl sulfamate]: the pIC50 was 7.00 to 7.30. In addition, under setting [1], the inhibition at 0.111 µM came to 66%.

Consider `CC(=O)c1nn([C@@H]2O[C@H](COS(N)(=O)=O)[C@@H](O)[C@H]2O)c2ncnc(N)c12` [Compound I-21, [(2R,3S,4R,5R)-5-(3-acetyl-4-amino-1H-pyrazolo[3,4-d]pyrimidin-1-yl)-3,4-dihydroxytetrahydrofuran-2-yl]methyl Sulfamate], for which the pIC50 is 6.30 to 7.00. Where the note is “read-out: Percent Inhibition”, the inhibition at 0.123 µM amounted to 22%.

For the compound `Nc1ncnc2c1c(Sc1ccccc1)nn2[C@@H]1O[C@H](COS(N)(=O)=O)[C@@H](O)[C@H]1O` [Compound I-82, {(2R,3S,4R,5R)-5-[4-amino-3-(phenylsulfanyl)-1H-pyrazolo[3,4-d]pyrimidin-1-yl]-3,4-dihydroxytetrahydrofuran-2-yl}methyl Sulfamate], the pIC50 was 7.30 to 7.70. In addition, the inhibition at 0.111 µM under setting [1] is 80%.

Turning to `Cc1ccc(Sc2nn([C@@H]3O[C@H](COS(N)(=O)=O)[C@@H](O)[C@H]3O)c3ncnc(N)c23)cc1` [Compound I-89, [(2R,3S,4R,5R)-5-{4-amino-3-[(4-methylphenyl)sulfanyl]-1H-pyrazolo[3,4-d]pyrimidin-1-yl}-3,4-dihydroxytetrahydrofuran-2-yl]methyl sulfamate], the negative logarithm of the IC50 (pIC50) is greater than 7.70. Also, under setting [1], the inhibition at 0.111 µM turned out to be 86%.

For the compound `Nc1ncnc2c1c(Sc1ccc(C(F)(F)F)cn1)nn2[C@@H]1O[C@H](COS(N)(=O)=O)[C@@H](O)[C@@H]1F` [Compound I-143, [(2R,3R,4S,5R)-5-(4-amino-3-{[5-(trifluoromethyl)pyridin-2-yl]sulfanyl}-1H-pyrazolo[3,4-d]pyrimidin-1-yl)-4-fluoro-3-hydroxytetrahydrofuran-2-yl]methyl sulfamate], the pIC50 is 7.00 to 7.30. For the same compound, the inhibition at 0.111 µM under setting [1] is 68%.

Turning to `Nc1ncnc2c1c(Sc1ccc(Cl)cn1)nn2[C@H]1C[C@H](O)[C@@H](COS(N)(=O)=O)O1` [Compound I-189, [(2R,3S,5R)-5-{4-amino-3-[(5-chloropyridin-2-yl)sulfanyl]-1H-pyrazolo[3,4-d]pyrimidin-1-yl}-3-hydroxytetrahydrofuran-2-yl]methyl sulfamate], the pIC50 was 7.00 to 7.30. In addition, under setting [1], the inhibition at 0.111 µM is 60%.

On to `Nc1ncnc2c1c(SC1CC1)nn2[C@@H]1O[C@H](COS(N)(=O)=O)[C@@H](O)[C@H]1O` [Compound I-65, {(2R,3S,4R,5R)-5-[4-amino-3-(cyclopropylsulfanyl)-1H-pyrazolo[3,4-d]pyrimidin-1-yl]-3,4-dihydroxytetrahydrofuran-2-yl}methyl Sulfamate], for which the pIC50 is greater than 7.70. The inhibition at 0.123 µM (read-out: Percent Inhibition) stood at 89%.

As for `CC(C)(O)c1nn([C@@H]2O[C@H](COS(N)(=O)=O)[C@@H](O)[C@H]2O)c2ncnc(N)c12` [Compound I-24, {(2R,3S,4R,5R)-5-[4-amino-3-(2-hydroxypropan-2-yl)-1H-pyrazolo[3,4-d]pyrimidin-1-yl]-3,4-dihydroxytetrahydrofuran-2-yl}methyl Sulfamate], the negative-log IC50 (pIC50) is less than 6.30. Moreover, where the note is “read-out: Percent Inhibition”, the inhibition at 0.123 µM came out at 11%.

For `Cc1ccc(Sc2nn([C@H]3C[C@H](O)[C@H](COS(N)(=O)=O)O3)c3ncnc(N)c23)cc1` [Compound I-214, [(2S,3S,5R)-5-{4-amino-3-[(4-methylphenyl)sulfanyl]-1H-pyrazolo[3,4-d]pyrimidin-1-yl}-3-hydroxytetrahydrofuran-2-yl]methyl sulfamate], the pIC50 was 6.30 to 7.00. Also, the inhibition at 0.111 µM under setting [1] came to 43%.
